Laboratory results reported in US8802861B2, “Thiazole derivatives and use thereof” (Merck Serono SA, priority 2004, dated 2014).

Target: PI3Kγ (Homo sapiens (Human), UniProt P48736)
Sequence (P48736 whole entry): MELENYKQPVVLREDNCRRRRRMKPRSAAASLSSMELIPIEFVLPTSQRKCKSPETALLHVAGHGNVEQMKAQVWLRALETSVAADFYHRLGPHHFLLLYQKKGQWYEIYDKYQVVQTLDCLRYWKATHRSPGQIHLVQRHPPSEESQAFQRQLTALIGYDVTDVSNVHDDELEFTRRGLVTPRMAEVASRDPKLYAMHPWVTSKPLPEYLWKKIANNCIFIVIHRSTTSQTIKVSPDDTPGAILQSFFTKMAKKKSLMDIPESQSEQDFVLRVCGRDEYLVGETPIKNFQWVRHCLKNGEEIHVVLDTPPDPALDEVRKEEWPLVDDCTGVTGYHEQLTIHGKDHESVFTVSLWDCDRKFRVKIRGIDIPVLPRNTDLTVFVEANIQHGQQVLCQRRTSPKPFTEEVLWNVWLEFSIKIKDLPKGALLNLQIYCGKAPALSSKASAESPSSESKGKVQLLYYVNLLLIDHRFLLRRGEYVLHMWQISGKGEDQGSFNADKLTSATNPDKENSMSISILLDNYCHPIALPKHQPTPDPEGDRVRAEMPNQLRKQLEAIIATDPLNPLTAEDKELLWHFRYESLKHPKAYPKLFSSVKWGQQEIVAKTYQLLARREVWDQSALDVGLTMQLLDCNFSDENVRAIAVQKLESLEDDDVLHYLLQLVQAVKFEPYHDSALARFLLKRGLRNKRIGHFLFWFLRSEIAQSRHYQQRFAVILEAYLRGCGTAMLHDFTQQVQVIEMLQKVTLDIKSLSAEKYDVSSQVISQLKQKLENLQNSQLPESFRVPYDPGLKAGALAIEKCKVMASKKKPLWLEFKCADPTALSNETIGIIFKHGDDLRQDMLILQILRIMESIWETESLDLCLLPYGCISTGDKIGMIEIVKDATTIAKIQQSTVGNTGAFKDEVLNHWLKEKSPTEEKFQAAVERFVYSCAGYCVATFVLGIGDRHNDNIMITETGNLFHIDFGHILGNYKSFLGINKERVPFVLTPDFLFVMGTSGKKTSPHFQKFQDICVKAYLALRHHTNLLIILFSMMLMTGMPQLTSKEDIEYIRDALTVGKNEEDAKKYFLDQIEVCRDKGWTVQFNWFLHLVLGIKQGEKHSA
Assay: High Throughput PI3K Lipid Kinase Assay (scintillation proximity assay)
Assay type: biochemical
Settings: Human recombinant GST-PI3Kγ, SPA
Description: a) High Throughput PI3K Lipid Kinase Assay (Binding Assay): The efficacy of compounds of the invention in inhibiting the PI3K induced-lipid phosphorylation may be tested in the following binding assay. The assay combines the scintillation proximity assay technology (SPA, Amersham) with the capacity of neomycin (a polycationic antibiotic) to bind phospholipids with high affinity and specificity. The Scintillation Proximity Assay is based on the properties of weakly emitting isotopes (such as ^3H, ^125I, ^33P). Coating SPA beads with neomycin allows the detection of phosphorylated lipid substrates after incubation with recombinant PI3K and radioactive ATP in the same well, by capturing the radioactive phospholipids to the SPA beads through their specific binding to neomycin. […] After incubation at room temperature for 180 minutes, with gentle agitation, the reaction is stopped by addition of 60 μl of a solution containing 100 μg of neomycin-coated PVT SPA beads in PBS containing ATP 10 mM and EDTA 5 mM. The assay is further incubated at room temperature for 60 minutes with gentle agitation to allow binding of phospholipids to neomycin-SPA beads. After precipitation of the neomycin-coated PVT SPA beads for 5 minutes at 1500×g, radioactive PtdIns(3)P is quantified by scintillation counting in a Wallac MicroBetaTM plate counter. The values indicated in Table I below refer to the IC50 (nM) with respect to PI3Kγ, i.e. the amount necessary to achieve 50% inhibition of said target. Said values show a considerable inhibitory potency of thiazole compounds with regard to PI3Kγ.
For `CC(=O)Nc1nc(C)c(-c2csc(NCCc3nnc(O)o3)n2)s1` [Example 56, 5-(2-{[2′-(acetylamino)-4′-methyl-4,5′-bi-1,3-thiazol-2-yl]amino}ethyl)-1,3,4-oxadiazol-2-olate], the IC50 was 0.377 µM.
In the case of `C=CCNc1nc(-c2sc(NC(C)=O)nc2C)cs1` [Example 6, N-[2-(allylamino)-4-methyl-4,5-bi-1,3-thiazol-2-yl]acetamide], the IC50 is reported as 0.202 µM.
Work on `COCCNc1nc(-c2sc(NC(C)=O)nc2C)cs1` [Example 33, N-{2-[(2-methoxyethyl)amino]-4-methyl-4,5-bi-1,3-thiazol-2-yl}acetamide] yielded an IC50 of 0.355 µM.
With `CC(=O)Nc1nc(C)c(-c2csc(N3CCCCC3)n2)s1` [Example 5, N-(4-methyl-2-piperidin-1-yl-4,5-bi-1,3-thiazol-2-yl)acetamide] the IC50 was 0.63 µM.
`CC(=O)NCCNc1nc(-c2sc(NC(C)=O)nc2C)cs1` [Example 77, N-(2-{[2-(acetylamino)ethyl]amino}-4′-methyl-4,5′-bi-1,3-thiazol-2′-yl)acetamide] showed an IC50 of 0.189 µM.
`CC(=O)Nc1nc(C)c(-c2csc(NC(C)(C)C)n2)s1` [Example 22, N-[2-(tert-butylamino)-4-methyl-4,5-bi-1,3-thiazol-2-yl]acetamide] showed an IC50 of 0.314 µM.
Molecule `CC(=O)Nc1nc(C)c(-c2csc(NCC(O)c3ccccc3)n2)s1` (centres unmarked) [Example 37, N-{2-[(2-hydroxy-2-phenylethyl)amino]-4-methyl-4,5-bi-1,3-thiazol-2-yl}acetamide] has an IC50 of 0.07 µM.
Molecule `CCOC(CCNc1nc(-c2sc(NC(C)=O)nc2C)cs1)OCC` [Example 45, N-{2-[(3,3-diethoxypropyl)amino]-4′-methyl-4,5′-bi-1,3-thiazol-2′-yl}acetamide] has an IC50 of 0.612 µM.
Molecule `CC(=O)Nc1nc(C)c(-c2csc(Nc3cccc(CCC(=O)O)c3)n2)s1` [Example 136, 3-(3-{[2′-(acetylamino)-4′-methyl-4,5′-bi-1,3-thiazol-2-yl]amino}phenyl) propanoic acid] has an IC50 of 0.064 µM.
With `CC(=O)Nc1nc(C)c(-c2csc(N)n2)s1` [Example 14, N-(2-amino-4-methyl-4,5-bi-1,3-thiazol-2-yl)acetamide] the IC50 was 0.575 µM.
In the case of `CC(=O)Nc1nc(C)c(-c2csc(N3CCOCC3)n2)s1` [Example 16, N-(4-methyl-2-morpholin-4-yl-4,5-bi-1,3-thiazol-2-yl)acetamide], the IC50 is reported as 0.844 µM.
Work on `CC(=O)Nc1nc(C)c(-c2csc(Nc3cccnc3)n2)s1` [Example 7, N-[4-methyl-2-(Pyridin-3-ylamino)-4,5-bi-1,3-thiazol-2-yl]acetamid] yielded an IC50 of 0.094 µM.
Molecule `CC(=O)Nc1nc(C)c(-c2csc(NCCN3CCOCC3)n2)s1` [Example 31, N-{4-methyl-2-[(2-morpholin-4-ylethyl)amino]-4,5-bi-1,3-thiazol-2-yl}acetamide] has an IC50 of 0.871 µM.
With `CC(=O)Nc1nc(C)c(-c2csc(Nc3cccnc3F)n2)s1` [Example 43, N-{2-[(2-fluoropyridin-3-yl)amino]-4′-methyl-4,5′-bi-1,3-thiazol-2′-yl}acetamide] the IC50 was 0.038 µM.

Test system: Akt/PKB phosphorylation in Raw 264-7 macrophages
Assay: Cell based ELISA to monitor PI3K inhibition (Akt/PKB phosphorylation after Complement 5a stimulation)
Settings: Mus musculus, RAW264.7, read-out: Cell Assay (P-Akt, Elisa) IC50 [μM]
Experimental: b) Cell Based ELISA to Monitor PI3K Inhibition:
The efficacy of compounds of the invention in inhibiting the PI3K induced AKt/PKB phosphorylation may be tested in the following cell based assay.
Measurement of Akt/PKB phosphorylation in macrophages after stimulation with Complement 5a: Raw 264: Raw 264-7 macrophages (cultured in DMEM-F12 medium containing 10% Fetal Calf serum and antibiotics) are plated at 20'000 cells/well in a 96 MTP 24 h before cell stimulation. Previous to the stimulation with 50 nM of Complement 5a during 5 minutes, Cells are serum starved for 2 h, and pretreated with inhibitors for 20 minutes. After stimulation cells are fixed in 4% formaldehyde for 20 minutes and washed 3 times in PBS containing 1% Triton X-100 (PBS/Triton). Endogenous peroxidase is blocked by a 20 minutes incubation in 0.6% H2O2 and 0.1% Sodium Azide in PBS/Triton and washed 3 times in PBS/Triton. Cells are then blocked by 60 minutes incubation with 10% fetal calf serum in PBS/Triton. Next, phosphorylated AKt/PKB is detected by an overnight incubation at 4° C. with first antibody (anti phospho Serine 473 Akt IHC, Cell Signaling) diluted 800-fold in PBS/Triton, containing 5% bovine serum albumin (BSA). After 3 washes in PBS/Triton, cells are incubated for 60 minutes with a peroxidase conjugated goat-anti-rabbit antibody (1/400 dilution in PBS/Triton, containing 5% BSA), washed 3 times in PBS/Triton, and 2 times in PBS and further incubated in 100 μl of substrate reagent solution (R&D) for 20 minutes. The reaction is stopped by addition of 50 μl of 1 M SO4H2 and absorbance is read at 450 nm.
The values indicated in Table II below reflect the percentage of inhibition of AKT phoshorylation as compared to basal level. Said values show a clear effect of the thiazole compounds on the activation of AKT phosphorylation in macrophages.
For `CC(=O)Nc1nc(C)c(-c2csc(Nc3cccc(-c4nnc(O)o4)c3)n2)s1` [Example 53, N-(2-{[3-(5-hydroxy-1,3,4-oxadiazol-2-yl)phenyl]amino}-4′-methyl-4,5′-bi-1,3-thiazol-2′-yl)acetamide], the IC50 was 1.51 µM.

Same assay, conditions: Mus musculus, RAW264.7; Raw 264-7 macrophages, 50 nM Complement 5a; read-out: Cell Assay (P-Akt, Elisa) IC50
For `CC(=O)Nc1nc(C)c(-c2csc(Nc3ccc(Cl)nc3)n2)s1` [Example 24, N-{2-[(6-chloropyridin-3-yl)amino]-4-methyl-4,5-bi-1,3-thiazol-2-yl}acetamide], the IC50 was 0.66 µM.
Work on `CC(=O)Nc1nc(C)c(-c2csc(NCCC(N)=O)n2)s1` [Example 84] yielded an IC50 of 1.84 µM.
For `CC(=O)Nc1nc(C)c(-c2csc(Nc3cccc(C(=O)O)c3)n2)s1` [Example 1], the IC50 was 3.18 µM.
`CC(=O)Nc1nc(C)c(-c2csc(Nc3cccnc3)n2)s1` [Example 7, N-[4-methyl-2-(Pyridin-3-ylamino)-4,5-bi-1,3-thiazol-2-yl]acetamid] gave an IC50 of 1.64 µM.

Test system: Class I PI3-kinases
Assay: not given
Settings: Fruman et al., 1998; read-out: IC50 against each of the various Class I PI3-kinases; cited from earlier work
In the case of `COC[C@H]1OC(=O)c2coc3c2[C@@]1(C)C1=C(C3=O)[C@@H]2CCC(=O)[C@@]2(C)C[C@H]1OC(C)=O` [wortmannin], the IC50 is given as 0.001 to 0.01 µM.
